Legend:
Test in all cases: cells
COR-L105 = type: functional, cell-based; conditions: Homo sapiens;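 also: cell growth inhibition determined with a viability assay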
Description: SANGER: Inhibition of human COR-L105 cell growth in a cell viability assay.

Ca9-22 = type: functional, cell-based; conditions: Homo sapiens;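 also: growth inhibition of Ca9-22 cells, read out with a cell viability assay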
Description: SANGER: Inhibition of human Ca9-22 cell growth in a cell viability assay.

ChaGo-K-1 = type: functional, cell-based; conditions: Homo sapiens;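 also: growth inhibition of ChaGo-K-1 cells, read out with a cell viability assay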
Description: SANGER: Inhibition of human ChaGo-K-1 cell growth in a cell viability assay.

DMS-273 = type: functional, cell-based; conditions: Homo sapiens
Description: SANGER: Inhibition of human DMS-273 cell growth in a cell viability assay.

EB-3 = type: functional, cell-based, Homo sapiens; conditions: Homo sapiens, EB-3;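 also: human EB-3 cells, growth inhibition read out via a cell viability assay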
Description: SANGER: Inhibition of human EB-3 cell growth in a cell viability assay.

ESS-1 = type: functional, cell-based; conditions: Homo sapiens;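 also: growth inhibition of human ESS-1 cells, read out by a cell viability assay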
Description: SANGER: Inhibition of human ESS-1 cell growth in a cell viability assay.

G-361 = type: functional, cell-based; conditions: Homo sapiens
G-402 = type: functional, cell-based; conditions: Homo sapiens
Description: SANGER: Inhibition of human G-402 cell growth in a cell viability assay.

HSC-2 = type: functional, cell-based; conditions: Homo sapiens;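 also: growth inhibition of human HSC-2 cells, read out by a cell viability assay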
Description: SANGER: Inhibition of human HSC-2 cell growth in a cell viability assay.

HT-1376 = type: functional, cell-based; conditions: Homo sapiens
Description: SANGER: Inhibition of human HT-1376 cell growth in a cell viability assay.

HTC-C3 = type: functional, cell-based; conditions: Homo sapiens;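 also: inhibition of cell growth, read out with a cell viability assay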
Description: SANGER: Inhibition of human HTC-C3 cell growth in a cell viability assay.

HuTu80 = type: functional, cell-based, Homo sapiens, HUTU-80; conditions: Homo sapiens, HuTu80;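 also: growth inhibition of HuTu80 human cells, determined with a cell viability readout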
Description: SANGER: Inhibition of human HUTU-80 cell growth in a cell viability assay.

HuO-3N1 = type: functional, cell-based; conditions: Homo sapiens;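 also: cell viability readout used to measure how strongly compounds suppress proliferation of human HuO-3N1 cells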
Description: SANGER: Inhibition of human HuO-3N1 cell growth in a cell viability assay.

IMR-5 = type: functional, cell-based, Homo sapiens; conditions: Homo sapiens, IMR-5; read-out: IC50;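 also: growth inhibition of human IMR-5 cells, read out with a cell viability assay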
Description: SANGER: Inhibition of human IMR-5 cell growth in a cell viability assay.

KARPAS-422 = type: functional, cell-based, Homo sapiens; conditions: Homo sapiens, KARPAS-422
Description: SANGER: Inhibition of human KARPAS-422 cell growth in a cell viability assay.

KMS-12-PE = type: functional, cell-based, Homo sapiens; conditions: Homo sapiens, KMS-12-PE;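 also: growth inhibition of human KMS-12-PE cells, measured with a cell viability assay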
Description: SANGER: Inhibition of human KMS-12-PE cell growth in a cell viability assay.

KYSE-270 = type: functional, cell-based; conditions: Homo sapiens;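 also: cell growth inhibition measured with a viability assay in the human KYSE-270 line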
Description: SANGER: Inhibition of human KYSE-270 cell growth in a cell viability assay.

LB373-MEL-D = type: functional, cell-based, Homo sapiens; conditions: Homo sapiens, LB373-MEL-D;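 also: growth inhibition of the cell line, read out in a cell viability assay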
Description: SANGER: Inhibition of human LB373-MEL-D cell growth in a cell viability assay.

LU-165 = type: functional, cell-based, Homo sapiens; conditions: Homo sapiens, LU-165
Description: SANGER: Inhibition of human LU-165 cell growth in a cell viability assay.

LoVo = type: functional, cell-based; conditions: Homo sapiens;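 also: growth inhibition of human LoVo cells, read out with a cell viability assay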
Description: SANGER: Inhibition of human LoVo cell growth in a cell viability assay.

MC-IXC = type: functional, cell-based; conditions: Homo sapiens;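 also: growth inhibition of MC-IXC cells, read out with a cell viability assay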
Description: SANGER: Inhibition of human MC-IXC cell growth in a cell viability assay.

MDA-MB-231 = type: functional, cell-based; conditions: Homo sapiens
Description: SANGER: Inhibition of human MDA-MB-231 cell growth in a cell viability assay.

MFH-ino = type: functional, cell-based, Homo sapiens; conditions: Homo sapiens, MFH-ino;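 also: growth inhibition of human MFH-ino cells, read out by a cell viability assay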
Description: SANGER: Inhibition of human MFH-ino cell growth in a cell viability assay.

MKN-1 = type: functional, cell-based; conditions: Homo sapiens;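 also: growth inhibition of human MKN1 cells, read out by a cell viability measurement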
Description: SANGER: Inhibition of human MKN1 cell growth in a cell viability assay.

MeWo = type: functional, cell-based; conditions: Homo sapiens;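 also: growth inhibition of MeWo cells, determined by a cell viability readout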
Description: SANGER: Inhibition of human Mewo cell growth in a cell viability assay.

NB12 = type: functional, cell-based; conditions: Homo sapiens;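 also: growth inhibition of human NB12 cells, read out by a cell viability assay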
Description: SANGER: Inhibition of human NB12 cell growth in a cell viability assay.

NCI-H1755 = type: functional, cell-based; conditions: Homo sapiens;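 also: cell viability readout used to measure growth inhibition of NCI-H1755 cells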
Description: SANGER: Inhibition of human NCI-H1755 cell growth in a cell viability assay.

NCI-H2030 = type: functional, cell-based; conditions: Homo sapiens;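 also: growth inhibition of human NCI-H2030 cells, read out by a cell viability assay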
Description: SANGER: Inhibition of human NCI-H2030 cell growth in a cell viability assay.

NCI-H2228 = type: functional, cell-based; conditions: Homo sapiens;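 also: growth inhibition of human NCI-H2228 cells, read out by a cell viability assay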
Description: SANGER: Inhibition of human NCI-H2228 cell growth in a cell viability assay.

NCI-H2342 = type: functional, cell-based; conditions: Homo sapiens;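 also: growth inhibition of the cancer cell line, determined with a cell viability assay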
Description: SANGER: Inhibition of human NCI-H2342 cell growth in a cell viability assay.

NCI-H650 = type: functional, cell-based; conditions: Homo sapiens;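 also: growth inhibition of NCI-H650 cells, read out by a viability assay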
Description: SANGER: Inhibition of human NCI-H650 cell growth in a cell viability assay.

NCI-H716 = type: functional, cell-based, Homo sapiens; conditions: Homo sapiens, NCI-H716;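 also: growth inhibition of human NCI-H716 cells, measured by a cell viability assay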
Description: SANGER: Inhibition of human NCI-H716 cell growth in a cell viability assay.

NCI-H810 = type: functional, cell-based; conditions: Homo sapiens;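 also: IC50 reflects inhibition of cancer cell line growth, read out with a cell viability assay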
Description: SANGER: Inhibition of human NCI-H810 cell growth in a cell viability assay.

NCI-H889 = type: functional, cell-based, Homo sapiens; conditions: Homo sapiens, NCI-H889;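 also: cell growth inhibition of the cell line, read out with a viability assay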
Description: SANGER: Inhibition of human NCI-H889 cell growth in a cell viability assay.

OAW-28 = type: functional, cell-based; conditions: Homo sapiens;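 also: growth inhibition of OAW-28 cells, read out with a cell viability assay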
Description: SANGER: Inhibition of human OAW-28 cell growth in a cell viability assay.

OVCAR-5 = type: functional, cell-based; conditions: Homo sapiens;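 also: growth inhibition of human OVCAR-5 cells, read out with a cell viability assay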
Description: SANGER: Inhibition of human OVCAR-5 cell growth in a cell viability assay.

P31-FUJ = type: functional, cell-based, Homo sapiens; conditions: Homo sapiens, P31-FUJ;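 also: growth inhibition of P31-FUJ cells, read out with a viability assay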
Description: SANGER: Inhibition of human P31-FUJ cell growth in a cell viability assay.

RD = type: functional, cell-based; conditions: Homo sapiens
Description: SANGER: Inhibition of human RD cell growth in a cell viability assay.

SCC-25 = type: functional, cell-based; conditions: Homo sapiens;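 also: growth inhibition of SCC-25 cells, measured with a cell viability assay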
Description: SANGER: Inhibition of human SCC-25 cell growth in a cell viability assay.

SK-HEP1 = type: functional, cell-based, SK-HEP-1; conditions: Homo sapiens;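 also: cell viability readout used to quantify reduction in proliferation of human SK-HEP-1 cells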
Description: SANGER: Inhibition of human SK-HEP-1 cell growth in a cell viability assay.

SK-LU-1 = type: functional, cell-based; conditions: Homo sapiens;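 also: cell viability assay measuring growth inhibition of human SK-LU-1 cells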
Description: SANGER: Inhibition of human SK-LU-1 cell growth in a cell viability assay.

SK-MEL-28 = type: functional, cell-based; conditions: Homo sapiens;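 also: growth inhibition of human SK-MEL-28 cells, read out with a cell viability assay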
Description: SANGER: Inhibition of human SK-MEL-28 cell growth in a cell viability assay.

SNU-387 = type: functional, cell-based; conditions: Homo sapiens
Description: SANGER: Inhibition of human SNU-387 cell growth in a cell viability assay.

SNU-423 = type: functional, cell-based; conditions: Homo sapiens
Description: SANGER: Inhibition of human SNU-423 cell growth in a cell viability assay.

SW1088 = type: functional, cell-based; conditions: Homo sapiens;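 also: growth inhibition of human SW1088 cells, read out by a cell viability assay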
Description: SANGER: Inhibition of human SW1088 cell growth in a cell viability assay.

SW13 = type: functional, cell-based; conditions: Homo sapiens;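 also: IC50 is inhibition of SW13 cell growth, read out with a cell viability assay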
Description: SANGER: Inhibition of human SW13 cell growth in a cell viability assay.

SW1463 = type: functional, cell-based; conditions: Homo sapiens;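 also: growth inhibition of SW1463 cells, determined with a cell viability assay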
Description: SANGER: Inhibition of human SW1463 cell growth in a cell viability assay.

SW1783 = type: functional, cell-based; conditions: Homo sapiens;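 also: cell growth inhibition measured with a viability assay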
Description: SANGER: Inhibition of human SW1783 cell growth in a cell viability assay.

SW-620 = type: functional, cell-based; conditions: Homo sapiens;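 also: growth inhibition of human SW-620 cells, measured by a cell viability assay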
Description: SANGER: Inhibition of human SW620 cell growth in a cell viability assay.

CWR22R = type: functional, cell-based; conditions: Homo sapiens, 22Rv1;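 also: growth inhibition of 22Rv1 cells, read out with a cell viability assay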
Description: SANGER: Inhibition of human 22RV1 cell growth in a cell viability assay.

ACHN = type: functional, cell-based; conditions: Homo sapiens;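 also: cell viability read-out used to gauge how strongly growth of human ACHN cells is suppressed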
Description: SANGER: Inhibition of human ACHN cell growth in a cell viability assay.

BHY = type: functional, cell-based; conditions: Homo sapiens;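 also: cell growth inhibition read out by a viability assay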
Description: SANGER: Inhibition of human BHY cell growth in a cell viability assay.

BXPC-3 = type: functional, cell-based; conditions: Homo sapiens;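 also: growth inhibition of human BxPC-3 cells, read out by a cell viability assay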
Description: SANGER: Inhibition of human BxPC-3 cell growth in a cell viability assay.

CAL-72 = type: functional, cell-based; conditions: Homo sapiens;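 also: cell viability assay measuring inhibition of proliferation in the CAL-72 cell line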
Description: SANGER: Inhibition of human CAL-72 cell growth in a cell viability assay.

WM-115 = type: functional, cell-based; conditions: Homo sapiens
Description: SANGER: Inhibition of human WM-115 cell growth in a cell viability assay.

WSU-NHL = type: functional, cell-based, Homo sapiens; conditions: Homo sapiens, WSU-NHL;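 also: growth inhibition of human WSU-NHL cells, read out with a cell viability assay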
Description: SANGER: Inhibition of human WSU-NHL cell growth in a cell viability assay.

YT = type: functional, cell-based, Homo sapiens; conditions: Homo sapiens, YT
Description: SANGER: Inhibition of human YT cell growth in a cell viability assay.

CAMA-1 = type: functional, cell-based; conditions: Homo sapiens;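 also: growth inhibition of CAMA-1 cells, read out with a cell viability assay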
Description: SANGER: Inhibition of human CAMA-1 cell growth in a cell viability assay.

CAPAN-1 = type: functional, cell-based; conditions: Homo sapiens;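 also: growth suppression of CAPAN-1 cells, read out by a cell viability assay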
Description: SANGER: Inhibition of human CAPAN-1 cell growth in a cell viability assay.

CHP-212 = type: functional, cell-based; conditions: Homo sapiens
Description: SANGER: Inhibition of human CHP-212 cell growth in a cell viability assay.

Measured: IC50

O=S(=O)(O)c1ccc2cc(/N=N/c3cc(S(=O)(=O)O)c4cccnc4c3O)ccc2c1
> 16 µM: COR-L105 | Ca9-22 | ChaGo-K-1 | DMS-273 | EB-3 | ESS-1 | G-361 | G-402 | HSC-2 | HT-1376 | HTC-C3 | HuTu80 | HuO-3N1 | IMR-5 | KARPAS-422 | KMS-12-PE | KYSE-270 | LB373-MEL-D | LU-165 | LoVo | MC-IXC | MDA-MB-231 | MFH-ino | MKN-1 | MeWo | NB12 | NCI-H1755 | NCI-H2030 | NCI-H2228 | NCI-H2342 | NCI-H650 | NCI-H716 | NCI-H810 | NCI-H889 | OAW-28 | OVCAR-5 | P31-FUJ | RD | SCC-25 | SK-HEP1 | SK-LU-1 | SK-MEL-28 | SNU-387 | SNU-423 | SW1088 | SW13 | SW1463 | SW1783 | SW-620 | CWR22R | ACHN | BHY | BXPC-3 | CAL-72 | WM-115 | WSU-NHL | YT | CAMA-1 | CAPAN-1 | CHP-212

Reference: ChEMBL document CHEMBL1201861, “Genomics of Drug Sensitity in Cancer screening data, Wellcome Trust Sanger Institute”
